Results published in US20090176817A1, “Method of Treatment of Diarrhea-Predominant Irritable Bowel Syndrome in a Subject” (priority 2005, published 2009).

System: diarrhea-predominant IBS subjects
Test: Study S241.3.011: weekly diary questions on adequate relief
Type: in vivo, human
Conditions: 2 mg TID, ITT; for Number of subjects who were responders during the three-month treatment period: Adequate relief of IBS symptoms / Number of subjects who were responders during the three-month treatment period: Adequate relief of abdominal pain/discomfort / Number of subjects who were responders during the three-month treatment period: Adequate relief of abnormal bowel habits: observed case
Description: Study S241.3.011 was a Phase III, double-blind, placebo-controlled, randomized, multinational study to investigate the safety and efficacy of 2 mg TID of cilansetron for a period of 12 weeks followed by a rerandomized, placebo-controlled four-week treatment period, in diarrhea-predominant IBS subjects. The study was conducted in six countries including the US. A total of 2115 subjects consented to participate, and 770 subjects were randomized. A total of 746 subjects were analyzed for efficacy and 755 subjects were analyzed for safety. Diagnosis and main criteria for inclusion were IBS subjects satisfying the Rome I criteria (1992); the diarrhea predominant sub-population of the Rome II criteria; and a minimum abdominal pain/discomfort, stool frequency and consistency determined during the run-in period. Subjects were treated with cilansetron 2 mg tablets given orally TID or matching placebo tablets given orally TID for 12 weeks followed by a rerandomized, placebo-controlled four-week treatment period.
The primary efficacy parameter was the number of months that a subject was a responder for IBS symptoms (abdominal pain, abdominal discomfort, abnormal bowel habits) over the 12-week treatment period. A responder for a month (monthly responder) was defined as a subject who answered the weekly question with “yes” at least twice for that month. The two main secondary efficacy parameters were the monthly responder rates based on the “adequate relief” questions regarding abdominal pain/discomfort and abnormal bowel habits during the 12-week treatment period. The overall response rate and responder rate for the weekly diary questions on adequate relief at each month and all months, the adequate relief rate, the number of subjects with adequate relief by week, daily diary questions, IBS-QOL scores, and the interruption of activities were also assessed. Safety was evaluated by physical examination, ECG, vital signs, laboratory evaluations, concomitant medications, and AEs.
Subjects who were initially randomized to the cilansetron 2 mg TID group and rerandomized to placebo, will be referred to as the C/P treatment group; subjects initially randomized to the placebo group and rerandomized to placebo will be referred to as the P/P treatment group; the P/C and C/C treatment group nomenclature follow the same principle. Of the 591 subjects who completed the three-month treatment period, 576 subjects were rerandomized and thus divided into the following treatment groups: 150 subjects in the C/C treatment group, 140 subjects in the C/P treatment group, 136 subjects in the P/C treatment group, and 150 subjects in the P/P treatment group. Of the 576 subjects rerandomized, a higher percentage of subjects in the C/C treatment group (99%) completed the study compared with the C/P (95%), P/C (93%), and the P/P (95%) treatment groups.
Studies S24 1.3.OO6, S24 1.3.0 1 1, and S24 1.3.009 used the following efficacy measurements: • The subjects answered the following three questions with “yes” or “no” using a phone diary at the end of each week: • a) During the last week, did you experience adequate relief of your IBS symptoms, such as abdominal pain, abdominal discomfort, abnormal bowel habits? • b) During the last week, did you experience adequate relief of your abdominal pain and/or discomfort? • c) During the last week, did you experience adequate relief of your abnormal bowel habits? • The subjects rated the following symptoms using the phone diary at the end of each day: • abdominal pain/discomfort (five-point scale); • stool consistency (seven-point Bristol Stool Scale); • stool frequency (number of bowel movements each day); • urgency (five-point scale); • straining (yes or no); • feeling of incomplete defecation (yes or no); • bloating or feeling of abdominal distension (five-point scale). • In Studies S241 A006 and S241.3.009, subjects completed the IBS-QOL Survey at Baseline (Day 1) and at the end of treatment. […]

[1] = Duration of IBS: >24 months to ≦48 months, monthly LOCF imputation
[2] = Duration of IBS: >24 months to ≦48 months
[3] = Duration of IBS: >48 months to ≦120 months, monthly LOCF imputation
[4] = Duration of IBS: >48 months to ≦120 months
[5] = Duration of IBS: >120 months, monthly LOCF imputation
[6] = Duration of IBS: ≦24 months, monthly LOCF imputation
[7] = Female subjects, three-month treatment period, monthly LOCF

Cc1nccn1C[C@H]1CCc2c(c3cccc4c3n2CCC4)C1=O [Cilansetron, (R)-(−)-4,5,6,8,9,10-hexahydro-10-[(2-methyl-1H-imidazol-1-yl)methyl]-11H-pyrido-[3,2,1-jk]-carbazol-11-one]
Number of months a subject was a responder during the three-month treatment period: Abnormal bowel habits, Two months [1]: 10 (14) n (%) | Number of months a subject was a responder during the three-month treatment period: Abnormal bowel habits, Zero months [1]: 20 (28) n (%) | Number of months a subject was a responder during the three-month treatment period: IBS symptoms, One month [1]: 7 (10) n (%) | Number of months a subject was a responder during the three-month treatment period: IBS symptoms, Three months [1]: 32 (44) n (%) | Number of months a subject was a responder during the three-month treatment period: IBS symptoms, Two months [1]: 16 (22) n (%) | Number of months a subject was a responder during the three-month treatment period: IBS symptoms, Zero months [1]: 17 (24) n (%) | Number of subjects who were responders during the three-month treatment period: Adequate relief of IBS symptoms [2]: 44 (61) n (%) | Number of subjects who were responders during the three-month treatment period: Adequate relief of abdominal pain/discomfort [2]: 44 (61) n (%) | Number of subjects who were responders during the three-month treatment period: Adequate relief of abnormal bowel habits [2]: 43 (60) n (%) | Number of months a subject was a responder during the three-month treatment period: Abdominal pain/discomfort, One month [3]: 15 (11) n (%) | Number of months a subject was a responder during the three-month treatment period: Abdominal pain/discomfort, Three months [3]: 61 (46) n (%) | Number of months a subject was a responder during the three-month treatment period: Abdominal pain/discomfort, Two months [3]: 23 (17) n (%) | Number of months a subject was a responder during the three-month treatment period: Abdominal pain/discomfort, Zero months [3]: 34 (26) n (%) | Number of months a subject was a responder during the three-month treatment period: Abnormal bowel habits, One month [3]: 15 (11) n (%) | Number of months a subject was a responder during the three-month treatment period: Abnormal bowel habits, Three months [3]: 50 (38) n (%) | Number of months a subject was a responder during the three-month treatment period: Abnormal bowel habits, Two months [3]: 29 (22) n (%) | Number of months a subject was a responder during the three-month treatment period: Abnormal bowel habits, Zero months [3]: 39 (29) n (%) | Number of months a subject was a responder during the three-month treatment period: IBS symptoms, One month [3]: 19 (14) n (%) | Number of months a subject was a responder during the three-month treatment period: IBS symptoms, Three months [3]: 50 (38) n (%) | Number of months a subject was a responder during the three-month treatment period: IBS symptoms, Two months [3]: 26 (20) n (%) | Number of months a subject was a responder during the three-month treatment period: IBS symptoms, Zero months [3]: 38 (29) n (%) | Number of subjects who were responders during the three-month treatment period: Adequate relief of IBS symptoms [4]: 69 (52) n (%) | Number of subjects who were responders during the three-month treatment period: Adequate relief of abdominal pain/discomfort [4]: 79 (59) n (%) | Number of subjects who were responders during the three-month treatment period: Adequate relief of abnormal bowel habits [4]: 69 (52) n (%) | Number of months a subject was a responder during the three-month treatment period: Abdominal paint/discomfort, One month [5]: 13 (13) n (%) | Number of months a subject was a responder during the three-month treatment period: Abdominal paint/discomfort, Three months [5]: 39 (38) n (%) | Number of months a subject was a responder during the three-month treatment period: Abdominal paint/discomfort, Two months [5]: 18 (18) n (%) | Number of months a subject was a responder during the three-month treatment period: Abdominal paint/discomfort, Zero months [5]: 32 (31) n (%) | Number of months a subject was a responder during the three-month treatment period: Abnormal bowel habits, One month [5]: 17 (17) n (%) | Number of months a subject was a responder during the three-month treatment period: Abnormal bowel habits, Three months [5]: 37 (36) n (%) | Number of months a subject was a responder during the three-month treatment period: Abnormal bowel habits, Two months [5]: 12 (12) n (%) | Number of months a subject was a responder during the three-month treatment period: Abnormal bowel habits, Zero months [5]: 36 (35) n (%) | Number of months a subject was a responder during the three-month treatment period: IBS symptoms, One month [5]: 17 (17) n (%) | Number of months a subject was a responder during the three-month treatment period: IBS symptoms, Three months [5]: 38 (37) n (%) | Number of months a subject was a responder during the three-month treatment period: IBS symptoms, Two months [5]: 12 (12) n (%) | Number of months a subject was a responder during the three-month treatment period: IBS symptoms, Zero months [5]: 35 (34) n (%) | Number of subjects who were responders during the three-month treatment period: Adequate relief of IBS symptoms (Duration of IBS: >120 months): 48 (47) n (%) | Number of subjects who were responders during the three-month treatment period: Adequate relief of abdominal pain/discomfort (Duration of IBS: >120 months): 55 (54) n (%) | Number of subjects who were responders during the three-month treatment period: Adequate relief of abnormal bowel habits (Duration of IBS: >120 months): 46 (45) n (%) | Number of months a subject was a responder during the three-month treatment period: Abdominal pain/discomfort, One month [6]: 7 (10) n (%) | Number of months a subject was a responder during the three-month treatment period: Abdominal pain/discomfort, Three months [6]: 27 (39) n (%) | Number of months a subject was a responder during the three-month treatment period: Abdominal pain/discomfort, Two months [6]: 16 (23) n (%) | Number of months a subject was a responder during the three-month treatment period: Abdominal pain/discomfort, Zero months [6]: 20 (29) n (%) | Number of months a subject was a responder during the three-month treatment period: Abnormal bowel habits, One month [6]: 8 (11) n (%) | Number of months a subject was a responder during the three-month treatment period: Abnormal bowel habits, Three months [6]: 30 (43) n (%) | Number of months a subject was a responder during the three-month treatment period: Abnormal bowel habits, Two months [6]: 15 (21) n (%) | Number of months a subject was a responder during the three-month treatment period: Abnormal bowel habits, Zero months [6]: 17 (24) n (%) | Number of months a subject was a responder during the three-month treatment period: IBS symptoms, One month [6]: 11 (16) n (%) | Number of months a subject was a responder during the three-month treatment period: IBS symptoms, Three months [6]: 28 (40) n (%) | Number of months a subject was a responder during the three-month treatment period: IBS symptoms, Two months [6]: 16 (23) n (%) | Number of months a subject was a responder during the three-month treatment period: IBS symptoms, Zero months [6]: 15 (21) n (%) | Number of subjects who were responders during the three-month treatment period: Adequate relief of IBS symptoms (Duration of IBS: ≦24 months): 45 (64) n (%) | Number of subjects who were responders during the three-month treatment period: Adequate relief of abdominal pain/discomfort (Duration of IBS: ≦24 months): 43 (61) n (%) | Number of subjects who were responders during the three-month treatment period: Adequate relief of abnormal bowel habits (Duration of IBS: ≦24 months): 45 (64) n (%) | Number of months a subject was a responder: One month (Abdominal pain/discomfort) [7]: 30 (11) n (%) | Number of months a subject was a responder: One month (Abnormal bowel habits) [7]: 34 (13) n (%) | Number of months a subject was a responder: One month (IBS symptoms) [7]: 35 (13) n (%) | Number of months a subject was a responder: Three months (Abdominal pain/discomfort) [7]: 101 (39) n (%)
